Source: ChEMBL document CHEMBL3046657, “Quantum chemical QSAR study of flavones and their radical-scavenging activity” (Med Chem Res, 2007)

What follows are compounds tested on Radical scavenging activity (assay: Antioxidant activity assessed as inhibition of DPPH radical […] at 33 uM after 5 min by spectrophotometric analysis).
Format: functional
`O=c1c(O)c(-c2cc(O)c(O)c(O)c2)oc2cc(O)ccc12` showed an inhibition of 82.3%. With `O=c1c(O)c(-c2cc(O)c(O)c(O)c2)oc2cc(O)cc(O)c12` the inhibition was 72.8%. In the case of `COc1cc(-c2oc3cc(O)cc(O)c3c(=O)c2O)cc(O)c1O`, the inhibition is reported as 84.6%. For `O=c1c(O)c(-c2ccc(O)c(O)c2)oc2cc(O)cc(O)c12`, the inhibition was 89.8%. `O=c1c(O)c(-c2ccc(O)cc2O)oc2cc(O)cc(O)c12` gave an inhibition of 96.5%. Compound `O=c1cc(-c2ccccc2)oc2cc(O)ccc12` has an inhibition of 2.8%. `O=c1cc(-c2ccccc2)oc2cccc(O)c12` showed an inhibition of 0.6%. Work on `O=c1cc(-c2ccccc2)oc2cc(O)cc(O)c12` yielded an inhibition of 1.1%. `COc1cccc2c(=O)cc(-c3ccccc3)oc12` gave an inhibition of 0.7%. Compound `O=c1cc(-c2ccc(O)cc2)oc2cc(O)cc(O)c12` has an inhibition of 0.7%. In the case of `O=c1cc(-c2ccccc2)oc2ccccc12`, the inhibition is reported as 1.5%. `O=c1c(O)c(-c2ccccc2)oc2ccccc12` gave an inhibition of 66%. With `O=C1CC(c2ccccc2)Oc2ccccc21` (stereo not given) the inhibition was 2.6%. In the case of `O=c1c(O)c(-c2ccccc2)oc2cc(O)cc(O)c12`, the inhibition is reported as 91.8%. For `O=C1C[C@@H](c2ccc(O)cc2)Oc2cc(O)cc(O)c21`, the inhibition was 6.3%. Work on `O=C1c2c(O)cc(O)cc2O[C@H](c2ccc(O)c(O)c2)[C@H]1O` yielded an inhibition of 94.8%. With `O=c1c(O)c(-c2ccc(O)c(O)c2)oc2cc(O)ccc12` the inhibition was 79%. `COc1ccc([C@@H]2CC(=O)c3c(O)cc(O)cc3O2)cc1O` was tested, and the inhibition was 30%. Work on `O=c1c(O)c(-c2ccc(O)cc2)oc2cc(O)cc(O)c12` yielded an inhibition of 93.5%. `O=C1c2ccc(O)cc2O[C@H](c2ccc(O)c(O)c2)[C@H]1O` gave an inhibition of 91.9%.
